From ChEMBL document CHEMBL5050839, “Methods and compositions for treatment of cancer” (2021)
Calls of active or inactive are those of the source. The rule behind the calls is not given here.

Tests used:
Format in all cases: functional, cell-based
Settings in all cases: for Activity: time 24-48 hrs
ASPC1 = assay: Antiproliferative activity against human ASPC1 cells after 24 to 48 hrs by Cell Titer-Glo luminiscent cell viability assay
BXPC-3 = assay: Antiproliferative activity against human BXPC-3 cells after 24 to 48 hrs by Cell Titer-Glo luminiscent cell viability assay
MIA PaCa-2 = assay: Antiproliferative activity against human MIA PaCa-2 cells after 24 to 48 hrs by Cell Titer-Glo luminiscent cell viability assay
PANC-1 = assay: Antiproliferative activity against human PANC-1 cells after 24 to 48 hrs by Cell Titer-Glo luminiscent cell viability assay

Row | SMILES | IC50 (ASPC1) [µM] | IC50 (BXPC-3) [µM] | IC50 (MIA PaCa-2) [µM] | IC50 (PANC-1) [µM] | Activity (ASPC1) | Activity (BXPC-3) | Activity (MIA PaCa-2) | Activity (PANC-1)
1 | COc1ccc(CCN2CCC(Nc3nc4ccccc4n3Cc3ccc(F)cc3)CC2)cc1 [ASTEMIZOLE] | 5.3 | 3.7 | 1.3 | 1.8 | – | – | – | –
2 | Cc1nc2n(c(=O)c1CCN1CCC(c3noc4cc(F)ccc34)CC1)CCCC2O (stereo unspecified) | – | – | – | – | Active | Active | Active | Active
3 | C[C@]12CC[C@@H]3c4ccc(OS(=O)(=O)O)cc4CC[C@H]3[C@@H]1CCC2=O | – | – | – | – | Active | Active | Active | Active
4 | CCC1=C(C)CN(C(=O)NCCc2ccc(S(=O)(=O)NC(=O)N[C@H]3CC[C@H](C)CC3)cc2)C1=O | – | – | – | – | Active | Active | Active | Active
5 | Cc1nc2n(c(=O)c1CCN1CCC(c3noc4cc(F)ccc34)CC1)CCCC2 [RISPERIDONE] | 35.3 | 7.5 | 10 | 27.6 | – | – | – | –
6 | O=C(O)c1ccc(NC(=O)[C@H](Cc2ccc(O)cc2)NC(=O)c2ccccc2)cc1 | – | – | – | – | Active | Active | Active | Active
7 | CN1CCC(=C2c3ccccc3CC(=O)c3sccc32)CC1 | – | – | – | – | Active | Active | Active | Active
8 | COc1ccc(-c2ccc3cc(C(=O)O)ccc3c2)cc1C12CC3CC(CC(C3)C1)C2 | – | – | – | – | Active | Active | Active | Active
9 | CC1(C)O[C@H]2C[C@H]3[C@@H]4CCC5=CC(=O)C=C[C@]5(C)[C@H]4[C@@H](O)C[C@]3(C)[C@]2(C(=O)CO)O1 | – | – | – | – | Active | Active | Active | Active
